Measurements from PMC5526551, “New hydrazonoindolin-2-ones: Synthesis, exploration of the possible anti-proliferative mechanism of action and encapsulation into PLGA microspheres” (PLoS ONE, 2017).

Tests used:
Swiss 3t3 fibroblasts = assay: Selectivity: growth inhibition in non-tumorigenic cell line; type: cell-based, mice; conditions: Mus musculus, 72 h, maximum 25 μM, read-out: IC50 Fibroblast Swiss 3t3
Experimental: (§1) This assessment of the growth inhibitory activity of the compounds was tested in quadruplicate at a maximum concentration of 25 μM, followed by 10 serially diluted concentrations.
A549, IEC-6, MCF-10A and 3t3 cells were harvested from 90-95% confluent cultures in 10 cm dishes, and diluted in growth media recommended by the suppliers as follows: A549 cells were cultured in RPMI-1640 medium supplemented with 5% fetal bovine serum (FBS). IEC-6 cells were obtained from ATCC and cultured in Dulbecco’s modified Eagle’s medium (DMEM) supplemented with 10% FBS and 0.1 unit/mL recombinant insulin. Swiss 3t3 cells were obtained from ATCC and cultured in DMEM supplemented with 10% FBS. […]
At the end of the treatment period, assay plates were allowed to cool to RT for 10 min prior to addition of 25 µL per well Promega CellTiterGlo reagent, followed by an additional 10 min incubation at RT. The resulting luminescence was quantitated using a Molecular Devices Spectramax Paradigm.Percent growth inhibition was calculated using equation (1). The potency of compounds was determined using the non-linear dose response algorithm (four-parameter logistic fit) with GraphPad Prism 5 software.

[1] = system: IEC-6, MCF-10A, Swiss 3t3 versus A-549; assay: Tumor cell selectivity, non-tumor cell lines versus NSCLC cells; type: cell-based; conditions: for Mean tumor selectivity: mean IC50 in non-tumor cell lines versus NSCLC cells
Experimental: as §1
As indicated in Fig 7 and Table 4, compound 7e inhibited growth in both normal and tumor cell lines >50%.

A549 = assay: Anti-proliferative activity, cell growth inhibition (CellTiterGlo, 72 h); type: cell-based, human; conditions: Homo sapiens; for IC50: A549, 72 h, read-out: IC50 A-549; for inhibition at 30 µM: A549, quadruplicate, read-out: Cell growth inhibitory activity, A-549
Experimental: (§2) Twenty compounds, i.e. 4a-o and 7a-e, were analyzed for cancer cell growth inhibitory activity. These studies were carried out using cells derived from human lung, colon and breast tumors (A549, HT-29 and ZR-75 cells, respectively). This initial assessment of activity tested each compound in quadruplicate at a single concentration of 30 μM, if solubility permitted.
(§3) A549, HT-29, ZR-75 were obtained from the American Type Culture Collection (ATCC). Cells were harvested from 90-95% confluent 10 cm dishes, and diluted in growth media (RPMI-1640 supplemented with 5% fetal bovine serum). An appropriate concentration of cells were prepared to add 1,250 cells in a volume of 25 µL per well in tissue culture treated Griener 384-well microplates, then incubated overnight at 37°C. Compound 7e was diluted to a concentration of 30 µM in DMSO. Concentrated dosing solutions of twice the final concentration were prepared by dilution of the DMSO stocks 1:500 in growth media. Two-fold serial dilutions were then prepared in medium containing 0.2% DMSO to maintain a constant concentration of vehicle throughout the concentration range of the compound. Each of these was added in an equal volume (25 µL) to four wells on each cell assay plate, along with the vehicle control. The highest concentration for serial dilutions of the positive control (sunitinib) was prepared exactly as the experimental compound 7e. Cells were incubated with the compounds for a further 72 h.
(§4) At the end of the treatment period, assay plates were allowed to cool to RT for 10 min prior to the addition of 25 µL per well Promega CellTiterGlo reagent, followed by additional 10 min incubation at RT. The resulting luminescence was quantitated using a Molecular Devices Spectramax Paradigm.
(§5) Percent growth inhibition was calculated as follows, where 100 represents the viability of vehicle treated control samples:
(§6) The potency of compounds was determined using the non-linear dose response algorithm (four-parameter logistic fit) with GraphPad Prism 5 software.

ZR-75 = assay: as above; type: cell-based, human; conditions: Homo sapiens; for IC50: ZR75, 72 h; for inhibition at 30 µM: ZR75, quadruplicate, read-out: Cell growth inhibitory activity, ZR-75
Experimental: as §2, §3, §4, §5, §6

HT-29 = assay: as above; type: cell-based, human; conditions: Homo sapiens; for IC50: HT-29, 72 h, 72 h; for inhibition at 30 µM: HT-29, quadruplicate, read-out: Cell growth inhibitory activity, HT-29
Experimental: as §2, §3, §4, §5, §6

NCI-H69AR = assay: Growth inhibition in multidrug resistant lung cancer cell line; type: cell-based; conditions: 72 h, maximum 25 μM
Experimental: Compound 7e was analyzed for cancer cell growth inhibitory activity in a sensitive NSCLC cell line (A549) and a multidrug resistant lung cancer cell line (NCI-H69AR) which expresses the ABCC1 efflux pump protein. This assessment of activity tested compounds in quadruplicate at a maximum concentration of 25 μM, followed by 10 serially diluted concentrations.
A549 and H69AR cells were harvested from 90-95% confluent 10 cm dishes, and diluted in growth media. An appropriate concentration of cells was prepared to add 1,250 cells in a volume of 25 µL per well in tissue culture treated BD 384-well microplates, then incubated overnight at 37 °C.
Compound 7e was diluted to a concentration of 25 µM in DMSO. Concentrated dosing solutions (double the final concentration) were prepared by dilution of the DMSO stocks 1:500 in growth medium. Two-fold serial dilutions were then prepared in medium containing 0.2% DMSO to maintain a constant concentration of vehicle throughout the concentration range of the compound. Each of these was added in equal volume (25 µL), to four wells on each cell assay plate, along with the vehicle control. The highest concentration for serial dilution of the positive control compound sunitinib was prepared exactly as the experimental compound 7e. Cells were incubated at 37°C with the compounds for a further 72 h. At the end of the treatment period, assay plates were allowed to cool to RT for 10 min prior to addition of 25 µL per well Promega CellTiterGlo reagent, followed by an additional 10 min incubation at RT. The resulting luminescence was quantitated using a Molecular Devices Spectramax Paradigm.
Percent growth inhibition was calculated using equation (1). The potency of compounds was determined using the non-linear dose response algorithm (four-parameter logistic fit) with GraphPad Prism 5 software.

SMILES	IC50 (Swiss 3t3 fibroblasts)	Mean tumor selectivity [1]	Growth inhibition in both normal and tumor cell lines ([1]; up to 25 μM)	IC50 (A549)	inhibition at 30 µM (A549)	IC50 (ZR-75)	inhibition at 30 µM (ZR-75)	IC50 (HT-29)	inhibition at 30 µM (HT-29)	IC50 (NCI-H69AR)	IC50 (NCI-H69AR; NCI-H69AR)
O=C1Nc2ccc(Br)cc2C1=NN=C1C(=O)N(Cc2ccccc2)c2ccccc21 [Compound 7e, 1-Benzyl-3-((5-bromo-2-oxoindolin-3-ylidene)hydrazono)indolin-2-one]	2.56 µM	1.7	> 50%	2.83 µM	97.1 ± 3.3%	1.79 µM	96.1 ± 4.6%	2.49 µM	95.7 ± 4.2%	12.7 µM	12.7 µM
CCN(CC)CCNC(=O)c1c(C)[nH]c(/C=C2\C(=O)Nc3ccc(F)cc32)c1C [Sunitinib, sunitinib, reference compound]	4.07 µM	1.4	–	5.87 µM	85.7 ± 2.7%	8.31 µM	90.7 ± 4.5%	10.1 µM	59.5 ± 2.3%	5.8 µM	5.83 µM
